According to PubChem BioAssay AID248 (DTP/NCI, 2004):
Values joined by “and” are separate entries in the source; they are usually repeats but may differ in a detail not shown here. Equal entries are not always repeated. Toxic doses and inconclusive results are not listed. No stated cut-off is given here; in the data, active means T/C of 150% or more; inactive means T/C below 125%.

Test system: L1210 leukemia ip in BDF1 mice, survival T/C
Assay: NCI In Vivo Anticancer Drug Screen. Data for tumor model L1210 Leukemia (intraperitoneal) in B6D2F1 (BDF1) mice
Settings: endpoint: mean survival time, higher = longer survival
In short: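 Survival endpoint. Drug-treated group vs vehicle group, expressed as T divided by C. Tumor passaged by transplantation.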

[1] = dose: 50.0 mg/kg/injection, schedule: Q01DX001 (ip), vehicle: carboxymethylcellulose (CMC)
[2] = dose: 100.0 mg/kg/injection, schedule: Q01DX001 (ip), vehicle: carboxymethylcellulose (CMC)
[3] = dose: 200.0 mg/kg/injection, schedule: Q01DX001 (ip), vehicle: carboxymethylcellulose (CMC)
[4] = dose: 400.0 mg/kg/injection, schedule: Q01DX001 (ip), vehicle: carboxymethylcellulose (CMC)
[5] = dose: 100.0 mg/kg/injection, schedule: Q01DX001 (ip), vehicle: saline
[6] = dose: 200.0 mg/kg/injection, schedule: Q01DX001 (ip), vehicle: saline
[7] = dose: 100.0 mg/kg/injection, schedule: Q01DX009 (ip), vehicle: Klucel (hydroxypropylcellulose) (HPC)
[8] = dose: 100.0 mg/kg/injection, schedule: Q04DX003 (ip), vehicle: Klucel (hydroxypropylcellulose) (HPC)
[9] = dose: 200.0 mg/kg/injection, schedule: Q01DX009 (ip), vehicle: Klucel (hydroxypropylcellulose) (HPC)
[10] = dose: 200.0 mg/kg/injection, schedule: Q04DX003 (ip), vehicle: Klucel (hydroxypropylcellulose) (HPC)
[11] = dose: 400.0 mg/kg/injection, schedule: Q01DX009 (ip), vehicle: Klucel (hydroxypropylcellulose) (HPC)
[12] = dose: 400.0 mg/kg/injection, schedule: Q04DX003 (ip), vehicle: Klucel (hydroxypropylcellulose) (HPC)
[13] = dose: 100.0 mg/kg/injection, schedule: Q01DX001 (ip), vehicle: Klucel (hydroxypropylcellulose) (HPC)
[14] = dose: 200.0 mg/kg/injection, schedule: Q01DX001 (ip), vehicle: Klucel (hydroxypropylcellulose) (HPC)
[15] = dose: 100.0 mg/kg/injection, schedule: Q01DX009 (ip), vehicle: saline with Tween-80
[16] = dose: 200.0 mg/kg/injection, schedule: Q01DX009 (ip), vehicle: saline with Tween-80
[17] = dose: 400.0 mg/kg/injection, schedule: Q01DX009 (ip), vehicle: saline with Tween-80

Measured: T/C

CCCC1C(CC)C=NN1Cc1ccccc1 (configuration not stated)
inactive: [1] 88 % of control | [2] 100 % of control | [3] 94 % of control | [4] 92 % of control

C/C(CC(C)C)=N\NC(=O)Nc1ccccc1Cl
inactive: dose: 100.0 mg/kg/injection, schedule: Q01DX009 (ip), vehicle: other 102 % of control | dose: 200.0 mg/kg/injection, schedule: Q01DX009 (ip), vehicle: other 89 % of control | dose: 400.0 mg/kg/injection, schedule: Q01DX009 (ip), vehicle: other 102 % of control

C=C(OCC)P(=O)(OCCCC)OCCCC
inactive: dose: 100.0 mg/kg/injection, schedule: Q04DX002 (ip), vehicle: saline with Tween-80 100 % of control | dose: 200.0 mg/kg/injection, schedule: Q04DX002 (ip), vehicle: saline with Tween-80 90 % of control | dose: 400.0 mg/kg/injection, schedule: Q04DX002 (ip), vehicle: saline with Tween-80 93 % of control

CC(CCc1ccc2sc3ccccc3c2c1)C(N)=O (configuration not stated)
inactive: [5] 94 % of control | [6] 92 % of control | dose: 400.0 mg/kg/injection, schedule: Q01DX001 (ip), vehicle: saline 94 % of control

CCCCCCCCCCCCCCCCC1=NCCN1
inactive: dose: 5.0 mg/kg/injection, schedule: Q01DX009 (ip), vehicle: saline 91 % of control | dose: 10.0 mg/kg/injection, schedule: Q01DX001 (ip), vehicle: saline 94 % of control | dose: 10.0 mg/kg/injection, schedule: Q01DX009 (ip), vehicle: saline 91 % of control | dose: 10.0 mg/kg/injection, schedule: Q04DX003 (ip), vehicle: saline 94 % of control | dose: 20.0 mg/kg/injection, schedule: Q01DX001 (ip), vehicle: saline 97 % of control | dose: 20.0 mg/kg/injection, schedule: Q01DX009 (ip), vehicle: saline 88 % of control | dose: 20.0 mg/kg/injection, schedule: Q04DX003 (ip), vehicle: saline 93 % of control and 90 % of control | dose: 40.0 mg/kg/injection, schedule: Q01DX001 (ip), vehicle: saline 101 % of control | dose: 40.0 mg/kg/injection, schedule: Q04DX003 (ip), vehicle: saline 95 % of control and 88 % of control

ClCCN(CCCl)c1ccc(CNCCCNCc2ccc(N(CCCl)CCCl)cc2Cl)c(Cl)c1
inactive: [1] 93 % of control

O=[N+]([O-])c1ccc(N2CCCC2)c([N+](=O)[O-])c1
inactive: [7] 101 % of control | [8] 95 % of control | [9] 93 % of control | [10] 92 % of control | [11] 97 % of control | [12] 99 % of control

CN(C)CCC(=O)c1ccc(Cl)cc1
inactive: dose: 50.0 mg/kg/injection, schedule: Q01DX001 (ip), vehicle: saline 101 % of control | dose: 50.0 mg/kg/injection, schedule: Q01DX009 (ip), vehicle: saline 95 % of control and 117 % of control | [5] 101 % of control | dose: 100.0 mg/kg/injection, schedule: Q01DX009 (ip), vehicle: saline 99 % of control and 103 % of control | dose: 100.0 mg/kg/injection, schedule: Q04DX002 (ip), vehicle: saline 95 % of control and 103 % of control | [6] 101 % of control | dose: 200.0 mg/kg/injection, schedule: Q04DX002 (ip), vehicle: saline 93 % of control and 90 % of control

Cn1c(=O)c2c(nc(C3CC4C5CCC(C5)C4C3)n2C)n(C)c1=O (configuration not stated)
inactive: [2] 103 % of control | [3] 95 % of control | [4] 95 % of control

Cc1nc(C)c(I)s1
inactive: [7] 93 % of control | [8] 98 % of control | [9] 97 % of control | [10] 93 % of control | [11] 94 % of control | [12] 104 % of control

CCP(CC)SC1OC(COC(C)=O)C(OC(C)=O)C(OC(C)=O)C1OC(C)=O (configuration not stated)
inactive: dose: 50.0 mg/kg/injection, schedule: Q01DX001 (ip), vehicle: Klucel (hydroxypropylcellulose) (HPC) 102 % of control | [13] 101 % of control | [14] 98 % of control

Cc1cc(C)n(C(N)=O)n1
inactive: [7] 109 % of control | [8] 105 % of control and 104 % of control | [9] 104 % of control | [10] 97 % of control and 102 % of control | [11] 110 % of control | [12] 101 % of control and 104 % of control

FC(F)/C=C\c1ccccc1
inactive: dose: 75.0 mg/kg/injection, schedule: Q01DX001 (ip), vehicle: other 103 % of control | dose: 150.0 mg/kg/injection, schedule: Q01DX001 (ip), vehicle: other 105 % of control | dose: 300.0 mg/kg/injection, schedule: Q01DX001 (ip), vehicle: other 111 % of control

O=S(=O)(CS(=O)(=O)Oc1ccccc1)Oc1ccccc1
inactive: [2] 93 % of control | [3] 102 % of control | [4] 93 % of control

COc1ccc(OCCOC(C)=O)cc1
inactive: dose: 100.0 mg/kg/injection, schedule: Q04DX002 (ip), vehicle: Klucel (hydroxypropylcellulose) (HPC) 107 % of control | dose: 200.0 mg/kg/injection, schedule: Q04DX002 (ip), vehicle: Klucel (hydroxypropylcellulose) (HPC) 100 % of control | dose: 400.0 mg/kg/injection, schedule: Q04DX002 (ip), vehicle: Klucel (hydroxypropylcellulose) (HPC) 103 % of control

O=C(O)/C(=C\CCCCCC/C=C(\CCO)C(=O)O)CCO
inactive: [7] 98 % of control | [8] 96 % of control | [9] 91 % of control | [10] 93 % of control | [11] 89 % of control | [12] 93 % of control

CCOC(=O)C1CCc2c(ccc3ccccc23)N1 (configuration not stated)
inactive: [1] 100 % of control | dose: 50.0 mg/kg/injection, schedule: Q01DX009 (ip), vehicle: carboxymethylcellulose (CMC) 102 % of control and 91 % of control | dose: 50.0 mg/kg/injection, schedule: Q04DX002 (ip), vehicle: carboxymethylcellulose (CMC) 100 % of control and 106 % of control | dose: 50.0 mg/kg/injection, schedule: Q04DX003 (ip), vehicle: carboxymethylcellulose (CMC) 105 % of control | [2] 105 % of control | dose: 100.0 mg/kg/injection, schedule: Q01DX009 (ip), vehicle: carboxymethylcellulose (CMC) 94 % of control and 112 % of control | dose: 100.0 mg/kg/injection, schedule: Q04DX002 (ip), vehicle: carboxymethylcellulose (CMC) 100 % of control and 106 % of control | dose: 100.0 mg/kg/injection, schedule: Q04DX003 (ip), vehicle: carboxymethylcellulose (CMC) 107 % of control | [3] 103 % of control | dose: 200.0 mg/kg/injection, schedule: Q01DX009 (ip), vehicle: carboxymethylcellulose (CMC) 94 % of control and 102 % of control | dose: 200.0 mg/kg/injection, schedule: Q04DX002 (ip), vehicle: carboxymethylcellulose (CMC) 97 % of control and 102 % of control | dose: 200.0 mg/kg/injection, schedule: Q04DX003 (ip), vehicle: carboxymethylcellulose (CMC) 96 % of control

CC(C)N1CCOCC1
inactive: dose: 25.0 mg/kg/injection, schedule: Q01DX009 (ip), vehicle: acetone 94 % of control | dose: 50.0 mg/kg/injection, schedule: Q01DX009 (ip), vehicle: acetone 105 % of control | dose: 100.0 mg/kg/injection, schedule: Q01DX009 (ip), vehicle: acetone 102 % of control

CCCCCCCC/C=C\CCCCCCCC(=O)OCCCCC
inactive: [13] 93 % of control | dose: 100.0 mg/kg/injection, schedule: Q01DX009 (ip), vehicle: saline sonified 102 % of control | [15] 108 % of control | dose: 100.0 mg/kg/injection, schedule: Q04DX003 (ip), vehicle: saline with Tween-80 93 % of control | [14] 92 % of control | dose: 200.0 mg/kg/injection, schedule: Q01DX009 (ip), vehicle: saline sonified 100 % of control | [16] 98 % of control | dose: 200.0 mg/kg/injection, schedule: Q04DX003 (ip), vehicle: saline with Tween-80 91 % of control | dose: 400.0 mg/kg/injection, schedule: Q01DX001 (ip), vehicle: Klucel (hydroxypropylcellulose) (HPC) 103 % of control | dose: 400.0 mg/kg/injection, schedule: Q01DX009 (ip), vehicle: saline sonified 93 % of control | [17] 95 % of control | dose: 400.0 mg/kg/injection, schedule: Q04DX003 (ip), vehicle: saline with Tween-80 95 % of control

Cc1ccc(S(=O)(=O)N(C)c2ccc(N(C)S(=O)(=O)c3ccc(C)cc3)cc2)cc1
inactive: [8] 97 % of control | [10] 97 % of control | [12] 97 % of control

CC(=O)NC1C(OS(=O)(=O)c2ccc(C)cc2)C(NC(C)=O)C(OC(C)=O)C(OC(C)=O)C1OC(C)=O (configuration not stated)
inactive: [15] 102 % of control | [16] 109 % of control | [17] 100 % of control
